Like-named read-outs stand apart in the source and are kept apart here.
How the values were obtained:
[1] = system: Salmonella typhimurium TA100; format: cell-based
[2] = system: Salmonella typhimurium TA1535; format: cell-based
[3] = molecular target: T1, HDAC1 (Homo sapiens, UniProt Q13547); assay: HDAC fluorometric activity assay, HDAC1; format: biochemical
T1 construct: purchased Enzo Life Sciences, Farmingdale, NY, USA
Protocol: (§1) Pan HDAC enzyme (all the known class I HDACs-HDAC1, HDAC2, HDAC3, HDAC8 and class II HDACs 4-7, 9 and 10), HDAC subtype 1, 3 and 4 activity were determined by using the HDAC fluorometric cellular activity assay (Enzo Life Sciences, Farmingdale, NY, USA) according to the manufacturer’s protocol. […] Percent activity for each of the test compounds is calculated as follows:
(§2) Activity = {(Sc − B)/(S° − B)} × 100. […] IC50 was then calculated and represented as mean ± SD.

[4] = system: Chinese Hamster Ovary cells (CHO-K1); assay: Chromosome aberration assay; format: cell-based; conditions: for Number of cells with structural aberrations (%) B: chromosome break / Number of cells with structural aberrations (%) e: exchange / Number of cells with structural aberrations (%) G: chromosome gap / Number of cells with structural aberrations (%) b: chromatid break / Aberrant cell (%) With gap / Aberrant cell (%) Without gap / Number of cells with structural aberrations (%) D: dicentric / Number of cells with structural aberrations (%) g: chromatid gap: Chinese hamster
Protocol: Chinese hamster ovary epithelial cells (CHO-K1, American Type Culture Collection, Manassas, VA, USA) were cultured in 6-cm dishes at a density of 2 × 10^5 cells/mL for chromosomal abnormality analysis. […] Colemid (0.1 μg/mL) was administered 3 h before trypsinization, followed by treatment with 0.9% sodium citrate at 37 °C and Carnoy’s solution (methanol:acetic acid, 3:1). The cells were stained with 3% Giemsa solution in 0.07 M phosphate buffer (pH 6.8) on glass slides. […] The data were expressed as the total mean number of chromosomal aberrations per treatment ± standard deviation (SD) from three independent experiments.

[5] = system: Salmonella typhimurium TA102
Protocol: Five strains of Salmonella typhimurium, TA98, TA102, TA100, TA1537, and TA1535, were obtained from Moltox (Boone, NC, USA). Mutagenicity was evaluated by the incorporation method in the presence or absence of S9 metabolic activation. A volume of 100 µL of each test bacterial culture (10^9 cells/mL), 2 mL soft agar (0.6% agar, 0.5% NaCl, 5 mM histidine, and […], pH 7.4, 40–50 °C), 0.5 mL S9 mixture (if necessary), and AzP were mixed well in a test tube. […] The revertant colonies were counted, and a positive mutagenic response was identified when (i) the number of revertants was at least double the spontaneous yield; (ii) a statistical significance (p ≤ 0.05) was found; and (iii) a reproducible positive dose response was present.

[6] = molecular target: T2, HDAC3 (Homo sapiens, UniProt O15379); assay: HDAC fluorometric activity assay, HDAC3; format: biochemical
T2 construct: purchased Enzo Life Sciences, Farmingdale, NY, USA
T2 sequence (O15379 whole entry, species assumed): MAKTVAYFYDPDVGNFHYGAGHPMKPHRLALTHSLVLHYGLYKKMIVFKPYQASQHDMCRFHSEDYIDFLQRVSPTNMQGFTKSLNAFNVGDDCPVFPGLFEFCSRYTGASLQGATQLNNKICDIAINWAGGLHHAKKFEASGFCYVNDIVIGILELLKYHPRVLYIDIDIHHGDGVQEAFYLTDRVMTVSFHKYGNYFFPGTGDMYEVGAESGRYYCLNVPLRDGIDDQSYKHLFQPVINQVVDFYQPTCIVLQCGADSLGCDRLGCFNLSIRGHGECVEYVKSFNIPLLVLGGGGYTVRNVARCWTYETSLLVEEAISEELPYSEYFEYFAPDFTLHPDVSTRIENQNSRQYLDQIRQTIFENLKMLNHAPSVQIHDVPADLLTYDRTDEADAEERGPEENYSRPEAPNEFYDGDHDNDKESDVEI
T2 sequence (O75376 395-489 partner limits assumed, species assumed): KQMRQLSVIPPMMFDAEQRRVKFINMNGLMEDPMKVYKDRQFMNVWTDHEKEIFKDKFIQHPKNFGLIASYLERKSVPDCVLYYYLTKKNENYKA
Protocol: as §1, §2

[7] = system: IEC-6 cells; assay: Cisplatin-reduced IEC-6 cell viability; format: cell-based, Rat; conditions: data not shown
[8] = molecular target: T3, HDAC4 (Homo sapiens, UniProt P56524); assay: HDAC fluorometric activity assay, HDAC4; format: biochemical
T3 construct: purchased Enzo Life Sciences, Farmingdale, NY, USA
T3 sequence (P56524 whole entry, species assumed): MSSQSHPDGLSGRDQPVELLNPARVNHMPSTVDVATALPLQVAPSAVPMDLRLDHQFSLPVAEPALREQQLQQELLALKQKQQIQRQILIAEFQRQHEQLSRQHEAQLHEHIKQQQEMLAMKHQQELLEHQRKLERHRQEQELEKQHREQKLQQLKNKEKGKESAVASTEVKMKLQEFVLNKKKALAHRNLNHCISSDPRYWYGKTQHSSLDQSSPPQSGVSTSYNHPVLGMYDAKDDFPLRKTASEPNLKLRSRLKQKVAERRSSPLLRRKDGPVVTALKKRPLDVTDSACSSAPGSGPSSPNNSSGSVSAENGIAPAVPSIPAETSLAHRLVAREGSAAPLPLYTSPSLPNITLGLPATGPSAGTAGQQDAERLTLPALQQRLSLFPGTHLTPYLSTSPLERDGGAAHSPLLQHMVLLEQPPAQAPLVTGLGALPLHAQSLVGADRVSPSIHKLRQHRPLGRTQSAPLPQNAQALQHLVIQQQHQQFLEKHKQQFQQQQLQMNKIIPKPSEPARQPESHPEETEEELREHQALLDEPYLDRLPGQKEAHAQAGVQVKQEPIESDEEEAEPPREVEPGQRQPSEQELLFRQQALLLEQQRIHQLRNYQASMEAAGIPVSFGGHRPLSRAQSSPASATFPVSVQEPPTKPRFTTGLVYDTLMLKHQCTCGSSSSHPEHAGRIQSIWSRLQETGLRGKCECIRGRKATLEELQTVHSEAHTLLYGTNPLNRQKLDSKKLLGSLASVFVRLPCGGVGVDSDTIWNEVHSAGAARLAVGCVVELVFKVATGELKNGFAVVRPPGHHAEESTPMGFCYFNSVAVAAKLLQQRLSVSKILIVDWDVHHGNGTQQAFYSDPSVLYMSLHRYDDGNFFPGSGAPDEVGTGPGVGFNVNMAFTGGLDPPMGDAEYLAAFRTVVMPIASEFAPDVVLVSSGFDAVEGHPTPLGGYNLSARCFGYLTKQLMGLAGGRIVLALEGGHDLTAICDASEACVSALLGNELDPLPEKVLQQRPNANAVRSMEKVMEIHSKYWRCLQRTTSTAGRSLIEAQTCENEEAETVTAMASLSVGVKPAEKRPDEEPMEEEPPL
Protocol: as §1, §2

T1 sequence (Q13547 whole entry, species assumed): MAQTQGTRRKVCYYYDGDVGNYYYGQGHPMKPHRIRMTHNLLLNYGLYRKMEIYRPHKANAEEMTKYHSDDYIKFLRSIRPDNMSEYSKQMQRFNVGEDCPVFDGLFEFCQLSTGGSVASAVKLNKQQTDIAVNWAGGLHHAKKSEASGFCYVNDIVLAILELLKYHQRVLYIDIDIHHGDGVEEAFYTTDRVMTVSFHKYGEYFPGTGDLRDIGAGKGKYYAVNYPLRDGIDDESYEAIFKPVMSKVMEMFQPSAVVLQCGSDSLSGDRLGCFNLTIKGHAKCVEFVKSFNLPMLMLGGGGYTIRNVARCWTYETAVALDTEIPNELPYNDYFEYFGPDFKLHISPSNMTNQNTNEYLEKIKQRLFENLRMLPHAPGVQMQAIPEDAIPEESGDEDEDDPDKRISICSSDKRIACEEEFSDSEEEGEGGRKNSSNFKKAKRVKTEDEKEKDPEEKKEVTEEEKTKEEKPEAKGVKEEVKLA

SMILES: CC(C)(C)OC(=O)NC(Cc1ccc(OCc2ccccc2)cn1)C(=O)Nc1ccc(CCCC(=O)NO)cc1 (stereo not shown) [AzP, Azatyrosine-phenylbutyric hydroxamides]
- Ames test result, TA100 (-S9) ([1]; -S9): Negative
- Revertant colonies per plate (+S9) TA100 ([1]; AzP 0.00245 mg/plate): 106.7±2.2
- Revertant colonies per plate (-S9) TA100 ([1]; AzP 0.00245 mg/plate): 81±5
- Revertant colonies per plate (+S9) TA100 ([1]; AzP 0.0049 mg/plate): 106±4.4
- Revertant colonies per plate (-S9) TA100 ([1]; AzP 0.0049 mg/plate): 78.7±2.7
- Revertant colonies per plate (+S9) TA100 ([1]; AzP 0.0098 mg/plate): 107.3±1.3
- Revertant colonies per plate (-S9) TA100 ([1]; AzP 0.0098 mg/plate): 81.7±2.7
- Revertant colonies per plate (+S9) TA100 ([1]; AzP 0.0195 mg/plate): 110.3±3.8
- Revertant colonies per plate (-S9) TA100 ([1]; AzP 0.0195 mg/plate): 89.7±9
- Revertant colonies per plate (+S9) TA100 ([1]; AzP 0.0391 mg/plate): 150.3±19.7
- Revertant colonies per plate (-S9) TA100 ([1]; AzP 0.0391 mg/plate): 90.8±9.6
- Revertant colonies per plate (+S9) TA100 ([1]; AzP 0.0781 mg/plate): 153±3.1
- Revertant colonies per plate (-S9) TA100 ([1]; AzP 0.0781 mg/plate): 88.7±1.2
- Revertant colonies per plate (+S9) TA100 ([1]; AzP 0.156 mg/plate): 104±8
- Revertant colonies per plate (+S9) TA100 ([1]; AzP 0.3125 mg/plate): 92.2±5.2
- Ames test result, TA100 (|S9) ([1]; second S9 group): Negative
- Ames test result, TA1535 (-S9) ([2]; -S9): Negative
- Revertant colonies per plate (-S9) TA1535 ([2]; AzP 0.0195 mg/plate): 52±1.2
- Revertant colonies per plate (+S9) TA1535 ([2]; AzP 0.0391 mg/plate): 46.5±3.3
- Revertant colonies per plate (-S9) TA1535 ([2]; AzP 0.0391 mg/plate): 47.3±9
- Revertant colonies per plate (+S9) TA1535 ([2]; AzP 0.0781 mg/plate): 50.5±4.9
- Revertant colonies per plate (-S9) TA1535 ([2]; AzP 0.0781 mg/plate): 59±0.6
- Revertant colonies per plate (+S9) TA1535 ([2]; AzP 0.156 mg/plate): 52.5±5.2
- Revertant colonies per plate (-S9) TA1535 ([2]; AzP 0.156 mg/plate): 61.3±2.2
- Revertant colonies per plate (+S9) TA1535 ([2]; AzP 0.3125 mg/plate): 51.7±3.6
- Revertant colonies per plate (-S9) TA1535 ([2]; AzP 0.3125 mg/plate): 54.6±7.2
- Revertant colonies per plate (+S9) TA1535 ([2]; AzP 0.625 mg/plate): 59.2±3.3
- Revertant colonies per plate (-S9) TA1535 ([2]; AzP 0.625 mg/plate): 52.2±13.4
- Revertant colonies per plate (+S9) TA1535 ([2]; AzP 1.25 mg/plate): 67±3.2
- Revertant colonies per plate (+S9) TA1535 ([2]; AzP 2.5 mg/plate): 58±2.1
- Ames test result, TA1535 (|S9) ([2]; second S9 group): Negative
- IC50 [3]: 3.44 ± 0.68 µM
- Chromosome aberration assay result [4]: Negative
- Number of cells with structural aberrations (%) B: chromosome break ([4]; 3 h, 5 µg/mL): 0.00±0.00%
- Number of cells with structural aberrations (%) e: exchange ([4]; 3 h, 5 µg/mL): 0.00±0.00%
- Number of cells with structural aberrations (%) B: chromosome break ([4]; 3 h, 10 µg/mL): 0.00±0.00%
- Number of cells with structural aberrations (%) G: chromosome gap ([4]; 3 h, 10 µg/mL): 0.00±0.00%
- Number of cells with structural aberrations (%) b: chromatid break ([4]; 3 h, 10 µg/mL): 0.00±0.00%
- Number of cells with structural aberrations (%) e: exchange ([4]; 3 h, 10 µg/mL): 0.00±0.00%
- Number of cells with structural aberrations (%) B: chromosome break ([4]; 3 h, 20 µg/mL): 0.00±0.00%
- Number of cells with structural aberrations (%) G: chromosome gap ([4]; 3 h, 20 µg/mL): 0.00±0.00%
- Aberrant cell (%) With gap ([4]; 24 h, 5 µg/mL): 4.33±0.58%
- Aberrant cell (%) Without gap ([4]; 24 h, 5 µg/mL): 1.67±1.53%
- Number of cells with structural aberrations (%) B: chromosome break ([4]; 24 h, 5 µg/mL): 0.00±0.00%
- Number of cells with structural aberrations (%) D: dicentric ([4]; 24 h, 5 µg/mL): 0.33±0.58%
- Number of cells with structural aberrations (%) G: chromosome gap ([4]; 24 h, 5 µg/mL): 0.33±0.58%
- Number of cells with structural aberrations (%) b: chromatid break ([4]; 24 h, 5 µg/mL): 1.00±1.00%
- Number of cells with structural aberrations (%) e: exchange ([4]; 24 h, 5 µg/mL): 0.33±0.58%
- Number of cells with structural aberrations (%) g: chromatid gap ([4]; 24 h, 5 µg/mL): 2.33±1.53%
- Aberrant cell (%) With gap ([4]; 24 h, 10 µg/mL): 4.00±1.00%
- Aberrant cell (%) Without gap ([4]; 24 h, 10 µg/mL): 2.67±1.53%
- Number of cells with structural aberrations (%) B: chromosome break ([4]; 24 h, 10 µg/mL): 0.00±0.00%
- Number of cells with structural aberrations (%) D: dicentric ([4]; 24 h, 10 µg/mL): 0.67±0.58%
- Number of cells with structural aberrations (%) G: chromosome gap ([4]; 24 h, 10 µg/mL): 0.67±0.58%
- Number of cells with structural aberrations (%) b: chromatid break ([4]; 24 h, 10 µg/mL): 1.33±0.58%
- Number of cells with structural aberrations (%) e: exchange ([4]; 24 h, 10 µg/mL): 0.67±0.58%
- Number of cells with structural aberrations (%) g: chromatid gap ([4]; 24 h, 10 µg/mL): 1.33±0.58%
- Aberrant cell (%) With gap ([4]; 24 h, 20 µg/mL): 4.33±0.58%
- Aberrant cell (%) Without gap ([4]; 24 h, 20 µg/mL): 0.67±0.58%
- Number of cells with structural aberrations (%) B: chromosome break ([4]; 24 h, 20 µg/mL): 0.33±0.58%
- Number of cells with structural aberrations (%) D: dicentric ([4]; 24 h, 20 µg/mL): 0.00±0.00%
- Number of cells with structural aberrations (%) G: chromosome gap ([4]; 24 h, 20 µg/mL): 0.33±0.58%
- Number of cells with structural aberrations (%) b: chromatid break ([4]; 24 h, 20 µg/mL): 0.00±0.00%
- Number of cells with structural aberrations (%) e: exchange ([4]; 24 h, 20 µg/mL): 0.00±0.00%
- Number of cells with structural aberrations (%) g: chromatid gap ([4]; 24 h, 20 µg/mL): 3.33±0.58%
- Ames test result, TA102 (-S9) ([5]; -S9): Negative
- Revertant colonies per plate (+S9) TA102 ([5]; AzP 0.00245 mg/plate): 219.7±6.9
- Revertant colonies per plate (-S9) TA102 ([5]; AzP 0.00245 mg/plate): 141±4.4
- Revertant colonies per plate (+S9) TA102 ([5]; AzP 0.0049 mg/plate): 225.7±4.5
- Revertant colonies per plate (-S9) TA102 ([5]; AzP 0.0049 mg/plate): 142.3±4.7
- Revertant colonies per plate (+S9) TA102 ([5]; AzP 0.0098 mg/plate): 215±4
- Revertant colonies per plate (-S9) TA102 ([5]; AzP 0.0098 mg/plate): 140.3±7.9
- Revertant colonies per plate (+S9) TA102 ([5]; AzP 0.0195 mg/plate): 230.7±2
- Revertant colonies per plate (-S9) TA102 ([5]; AzP 0.0195 mg/plate): 139.5±5.6
- Revertant colonies per plate (+S9) TA102 ([5]; AzP 0.0391 mg/plate): 212.2±9.2
- Revertant colonies per plate (-S9) TA102 ([5]; AzP 0.0391 mg/plate): 138.3±8.5
- Revertant colonies per plate (+S9) TA102 ([5]; AzP 0.0781 mg/plate): 233.3±9.8
- Revertant colonies per plate (-S9) TA102 ([5]; AzP 0.0781 mg/plate): 152.7±11.3
- Revertant colonies per plate (+S9) TA102 ([5]; AzP 0.156 mg/plate): 217.3±4.8
- Revertant colonies per plate (+S9) TA102 ([5]; AzP 0.3125 mg/plate): 230.1±8.4
- Revertant colonies per plate (+S9) TA102 ([5]; AzP 0.625 mg/plate): 217.4±7.3
- Ames test result, TA102 (|S9) ([5]; second S9 group): Negative
- IC50 [6]: 660 ± 99 nM
- influence on cisplatin-reduced cell viability [7]: did not influence
- IC50 [8]: 1970 ± 110 nM

Source: article PMC6359543, “Efficacy of Azatyrosine-Phenylbutyric Hydroxamides, a Histone Deacetylase Inhibitor, on Chemotherapy-Induced Gastrointestinal Mucositis” (International Journal of Molecular Sciences, 2019)
